Converted amounts (≈) assume the structure as drawn. Like-named read-outs stand apart in the source and are kept apart here.
Legend:
[1] = system: P. falciparum FC27 lab lines; experiment: Ex vivo schizont maturation assay, lab line; assay type: cell-based; details: Plasmodium falciparum, read-out: P. falciparum FC27 lab lines IC50
Procedure: (§1) To assess comparative activity between P. falciparum and P. vivax strains compounds were tested in an ex vivo parasite assay using Plasmodium isolates from patients who visited clinics in Timika (Papua, Indonesia). Parasites in this region are resistant to standard anti-malarials such as chloroquine. P. vivax can not be cultivated in vitro so the ex vivo assay is the only method to evaluate drug sensitivity. Patients with parasitemia between 2000 and 80,000 ul^−1 were eligible for recruitment into the study. Blood was collected by venipuncture, host white blood cells were removed and packed infected red blood cells were used for the ex vivo studies. Drug susceptibility was measured as previously described (Russell et al., 2008, Antimicrobial Agents Chemother., 52, 1040-1045; Marfurt et al., 2011, Antimicrobial Agents Chemother., 55, 961-966; Marfurt et al., 2011, Antimicrobial Agents Chemother., 55, 4461-4464). Briefly two hundred μl of a 2% hematocrit blood mixture, consisting of RPMI 1640 medium plus 10% AB+ human serum (P. falciparum) or McCoy's 5A medium plus 20% AB+ human serum (P. vivax) was added to each well of pre-dosed drug plates containing serial 2-fold dilutions of the anti-malarial compound. A candle jar was used to mature parasites at 37° C. for 35-56 hrs. […] Thick blood films made from each well were stained with 5% Giemsa for 30 min and examined microscopically. The number of schizonts per 200 asexual stage parasites was determined and normalized to the control well. Data were analyzed by nonlinear regression (WinNonLn 4.1) to determine the IC50 using the inhibitory sigmoid Emax model.
(§2) Drug plate quality was assured by running schizont maturation assays (two independent experiments) with the chloroquine-resistant strain K1 and the chloroquine-sensitive strain FC27. For microscopy slide reading QC, two randomly selected drugs per isolate were read by a second microscopist. […] If necessary, discrepant results were resolved by a third reading by an expert microscopist.

[2] = system: P. vivax clinical isolates; experiment: Ex vivo schizont maturation assay, clinical isolates; assay type: cell-based; details: for IC50: Plasmodium vivax, read-out: P. vivax clinical isolates IC50
Procedure: as §1, §2

P. falciparum 3D7 = P. falciparum 3D7 growth inhibition assay (SYBR green); assay type: cell-based; details: Plasmodium falciparum, 72 h incubation, 50% growth inhibition, read-out: Pf 3D7 EC50
Procedure: The ability of triazolopyrimidine derivatives according to the invention to kill P. falciparum parasites and/or to inhibit its proliferation is assayed through their ability to inhibit Plasmodium falciparum growth. The growth inhibition assay is as follows: P. falciparum 3D7 cells were grown in Gibco-Invitrogen RPMI-1640 supplemented with 2% (w/v) red blood cells (RBCs) and either 20% human type A+ plasma (Desjardins et al., 1979, Antimicrob Agents Chemother. 16, 710-718) or with Gibco-Invitrogen 0.5% Albumax I (Coteron et al., 2011, J. Med. Chem., 54, 5540-5561). Serial dilutions of compound stocks were prepared in 100% DMSO at 200× the final concentration, followed by generation of 20× stocks in media. Cell growth was monitored by the SYBR green method as described (Deng, et al., 2014. J. Med. Chem., 57, 5381-539). Parasites (0.19 ml of 0.5% parasitemia, 0.5% HCT) were plated into 96-well microtiter plates containing 10 μL compound or DMSO control (final DMSO concentration of 0.5%). Non-parasitized RBCs (0.5% HCT) were used as a control to determine background fluorescence. After 72 h of incubation parasitized RBCs were quantitated by the SYBR Green method. 2× SYBR Green I solution (20 μL) in 1× PBS was mixed with 20 μL parasites in 96-well plates, incubated for 20 min, and after which 160 μL of 1× PBS was added. Fluorescence was detected using a BD Biosciences Acurri C6 flow cytometer and events recorded within gates that encompassed all asexual growth stages of the P. falciparum intraerythrocytic life cycle. A minimum 50,000 total events were recorded per well. Background events determined from non-parasitized RBC controls were subtracted from final counts.

pfDHODH = target: T1, pfDHODH (Plasmodium falciparum, UniProt Q08210); experiment: biochemical
T1 sequence (Q08210 24-569): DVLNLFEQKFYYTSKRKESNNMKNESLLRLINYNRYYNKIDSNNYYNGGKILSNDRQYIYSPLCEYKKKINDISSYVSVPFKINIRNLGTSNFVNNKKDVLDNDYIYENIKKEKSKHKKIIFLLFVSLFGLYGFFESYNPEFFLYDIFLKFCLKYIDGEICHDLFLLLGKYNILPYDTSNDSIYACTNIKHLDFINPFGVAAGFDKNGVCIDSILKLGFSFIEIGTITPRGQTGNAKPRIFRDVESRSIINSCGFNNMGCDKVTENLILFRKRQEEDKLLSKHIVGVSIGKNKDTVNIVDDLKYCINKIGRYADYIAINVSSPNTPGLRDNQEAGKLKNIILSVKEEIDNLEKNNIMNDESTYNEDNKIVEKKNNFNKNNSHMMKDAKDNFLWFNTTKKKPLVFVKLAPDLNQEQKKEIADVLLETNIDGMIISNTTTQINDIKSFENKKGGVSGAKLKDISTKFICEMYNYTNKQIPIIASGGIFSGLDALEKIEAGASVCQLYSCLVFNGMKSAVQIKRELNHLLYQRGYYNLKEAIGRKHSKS
Procedure: (§3) The compounds of the invention were also assessed for inhibitory activity against recombinant DHODH from the indicated species. Recombinant enzymes were produced and purified from E. coli as His6 fusion proteins and purified by Ni^+2-agarose chromatography as described.
(§4) Data were collected on a Synergy H1 hybrid plate reader in 96 well plate format at 28° C., using a final assay volume of 200 μl. Rate data (v) were converted to μmoles/min using the molar extinction coefficient for DCIP. Compounds were prepared in stock solutions of DMSO. An initial 100 mM stock was generated and this was used to prepare a 3 fold dilution series in DMSO. A 1:100 dilution of DMSO stock was made into assay buffer to generate the final concentration in the assay mix.
(§5) Assay Conditions: DHODH (ET=5-10 nM), substrates (0.2 mM L-dihydroorotate and 0.02 mM CoQD), DCIP (0.12 mM) and assay buffer (100 mM HEPES, pH 8.0, 150 mM NaCl, 10% Glycerol, 0.1%Triton) at 20° C. Concentration of compounds of the invention was varied in a 3-fold dilution series (0.01-100 uM). All data were collected in triplicate.
(§6) Fitting was performed in Graph Pad Prism to determine the IC50. Reported error represents the 95% confidence interval of the fit or the standard deviation of the mean.

dog DHODH = dog DHODH (Canis lupus familiaris, UniProt A0A8I3MWX2); experiment: Recombinant DHODH inhibition, DCIP dye-based assay; assay type: biochemical
Procedure: as §3, §4, §5, §6

human DHODH = human DHODH (Homo sapiens, UniProt Q02127); experiment: Recombinant DHODH inhibition, DCIP dye-based assay; assay type: biochemical; details: first value of cell, read-out: h/d/m/r DHODH (h)
Procedure: as §3, §4, §5, §6

mouse DHODH = mouse DHODH (Mus musculus, UniProt O35435); experiment: Recombinant DHODH inhibition, DCIP dye-based assay; assay type: biochemical; details: third value of cell, read-out: h/d/m/r DHODH (m)
Procedure: as §3, §4, §5, §6

rat DHODH = rat DHODH (Rattus norvegicus, UniProt Q63707); experiment: Recombinant DHODH inhibition, DCIP dye-based assay; assay type: biochemical; details: fourth value of cell, read-out: h/d/m/r DHODH (r)
Procedure: as §3, §4, §5, §6

[3] = Aqueous kinetic solubility by nephelometry; assay type: physicochemical; details: pH 6.5 phosphate buffer, 1% DMSO; for solubility kinetic: aqueous buffer, kinetic from dmso stock, read-out: Kinetic Solubility pH6.5
Procedure: Aqueous solubility was estimated by nephelometry. Concentrated stock solutions were prepared in DMSO and diluted into either pH 6.5 phosphate buffer or 0.01 M HCl (approximately pH 2.0), with the final DMSO concentration being 1%. Samples were then analyzed by nephelometry to determine the solubility range as described previously (Bevan, et al., 2000, Anal. Chem., 72, 1781-1787).

[4] = system: P. falciparum Pf3D70087/N9; experiment: SCID mouse P. falciparum in vivo efficacy model; parameters: species or system P. falciparum in NOD-scid IL-2Rγnull (NSG) mice; details: oral, starting day 3 post infection, NSG mice engrafted with human erythrocytes
Procedure: Briefly, NOD-scid IL-2Rγnull (NSG) mice (Jackson Laboratory, USA) (23-36 g) engrafted with human erythrocytes as described were infected with 20×10^6 P. falciparum Pf3D70087/N9) generated in GlaxoSmithkline Tres Cantos (Spain) by intravenous injection. Compounds were administered orally in vehicle (saline solution for Chloroquine; 0.5% w/v sodium carboxymethylcellulose, 0.5% v/v benzyl alcohol, 0.4% v/v Tween 80 in water for triazolopyrimidine analogs). Compounds were administered at target doses ranging from 0.5 to 75 mg/kg (free base equivalent) starting on day 3 post infection. Formulation concentrations were measured to obtain the actual doses administered. Parasitemia was monitored by flow cytometry and the effective dose (ED90) was calculated as described in Jimenez-Diaz, 2009, Antimicrobial agents and chemotherapy, 53, 4533-4536.

[5] = system: P. falciparum clinical isolates; experiment: Ex vivo schizont maturation assay, clinical isolates; assay type: cell-based; details: Plasmodium falciparum, read-out: P. falciparum clinical isolates IC50
Procedure: as §1, §2

[6] = recombinant enzyme, DCIP assay, IC50, read-out: PfDHODH
[7] = dog DHODH, second value of cell, read-out: h/d/m/r DHODH (d)
[8] = ex vivo schizont maturation, 35-56 hrs, FC27 chloroquine sensitive lab strain
[9] = ex vivo schizont maturation, 35-56 hrs, isolates from Timika (Papua, Indonesia)

Sequence of rat DHODH (Q63707 whole entry): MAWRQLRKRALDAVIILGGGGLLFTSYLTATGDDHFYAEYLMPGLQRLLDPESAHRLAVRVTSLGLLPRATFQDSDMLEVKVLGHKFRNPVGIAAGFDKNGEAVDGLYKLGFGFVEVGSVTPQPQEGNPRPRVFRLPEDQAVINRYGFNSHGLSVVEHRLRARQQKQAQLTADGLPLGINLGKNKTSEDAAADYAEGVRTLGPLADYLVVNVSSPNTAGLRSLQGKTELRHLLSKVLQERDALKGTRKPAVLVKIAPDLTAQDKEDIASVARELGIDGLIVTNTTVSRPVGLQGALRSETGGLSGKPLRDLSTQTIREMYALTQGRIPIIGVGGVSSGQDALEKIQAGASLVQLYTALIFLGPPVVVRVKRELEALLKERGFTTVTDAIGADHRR
Sequence of mouse DHODH (O35435 whole entry): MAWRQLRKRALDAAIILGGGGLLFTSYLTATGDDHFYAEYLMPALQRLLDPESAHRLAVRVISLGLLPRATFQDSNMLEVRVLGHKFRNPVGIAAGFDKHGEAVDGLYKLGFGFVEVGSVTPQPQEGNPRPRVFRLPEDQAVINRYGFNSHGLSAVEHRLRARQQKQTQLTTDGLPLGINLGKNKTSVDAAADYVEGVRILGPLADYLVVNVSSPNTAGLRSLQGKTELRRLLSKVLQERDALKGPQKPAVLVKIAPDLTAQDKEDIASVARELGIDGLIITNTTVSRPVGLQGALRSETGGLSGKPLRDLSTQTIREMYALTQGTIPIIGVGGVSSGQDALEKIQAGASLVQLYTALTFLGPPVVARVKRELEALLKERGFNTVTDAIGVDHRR
Sequence of dog DHODH (A0A8I3MWX2 1-406): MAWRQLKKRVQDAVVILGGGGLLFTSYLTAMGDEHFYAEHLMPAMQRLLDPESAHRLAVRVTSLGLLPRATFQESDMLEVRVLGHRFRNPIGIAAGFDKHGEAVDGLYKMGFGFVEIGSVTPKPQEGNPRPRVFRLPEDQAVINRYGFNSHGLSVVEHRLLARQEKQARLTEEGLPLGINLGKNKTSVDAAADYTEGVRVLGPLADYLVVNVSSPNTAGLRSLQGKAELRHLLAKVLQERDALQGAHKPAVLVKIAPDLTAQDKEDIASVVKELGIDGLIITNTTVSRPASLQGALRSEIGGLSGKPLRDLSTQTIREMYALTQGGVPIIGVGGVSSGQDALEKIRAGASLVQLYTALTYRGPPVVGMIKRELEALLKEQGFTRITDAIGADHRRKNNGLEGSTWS
Sequence of human DHODH (Q02127 whole entry): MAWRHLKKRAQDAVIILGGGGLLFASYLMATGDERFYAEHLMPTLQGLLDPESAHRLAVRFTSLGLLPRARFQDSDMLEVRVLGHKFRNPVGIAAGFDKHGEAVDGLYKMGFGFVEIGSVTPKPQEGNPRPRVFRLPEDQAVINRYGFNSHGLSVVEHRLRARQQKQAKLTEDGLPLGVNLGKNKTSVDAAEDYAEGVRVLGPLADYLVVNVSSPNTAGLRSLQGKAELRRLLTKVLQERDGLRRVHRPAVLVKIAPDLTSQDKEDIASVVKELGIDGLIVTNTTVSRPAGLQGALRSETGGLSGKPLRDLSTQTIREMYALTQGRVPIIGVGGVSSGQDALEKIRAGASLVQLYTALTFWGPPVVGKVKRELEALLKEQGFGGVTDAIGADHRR

Compound | EC50 (P. falciparum 3D7) | IC50 (pfDHODH; [6]) | IC50 (human DHODH) | IC50 (mouse DHODH) | IC50 (rat DHODH) | solubility kinetic [3] | ED90 [4] | IC50 (dog DHODH; [7]) | other results
C[C@H]1[C@H](OC(=O)CCC(=O)O)O[C@@H]2O[C@@]3(C)CC[C@H]4[C@H](C)CC[C@@H]1[C@@]24OO3 [Artesunate] | – | – | – | – | – | – | – | – | IC50 [1]: 3.6 to 11 nM; IC50 [2]: 0.8 to 2.9 nM
Cc1cc(Nc2ccc(C(F)(F)F)nc2)n2nc(C(F)(F)F)nc2n1 [Compound (3), 5-methyl-2-(trifluoromethyl)-N-(6-(trifluoromethyl)pyridin-3-yl)-[1,2,4]triazolo[1,5-a]pyrimidin-7-amine] | 35 nM | 41 nM | > 100000 nM | 33000 nM | 8400 nM | 50 µg/mL (≈ 138 µM) | – | – | IC50 (dog DHODH): 39000 nM
CCN(CC)CCCC(C)Nc1ccnc2cc(Cl)ccc12 (stereo not drawn) [Chloroquine] | – | – | – | – | – | – | 4.3 mg/kg per day | – | IC50 [1]: 23 to 32 nM; IC50 [5]: 86 to 101 nM; IC50 [2]: 43 to 147 nM
Cc1cc(Nc2ccc(C(F)(F)F)nc2)n2nc(C(C)(F)F)nc2n1 [Reference 1] | – | 50 nM | 58000 nM | 74000 nM | 4400 nM | – | – | 21000 nM | Kinetic Solubility pH6.5 [3]: 6.3 μg/ml
Cc1cc(Nc2ccc(C(F)(F)F)cc2)n2nc(C(C)(F)F)nc2n1 [Reference 3] | 8.3 nM | – | > 100000 nM | 24000 nM | 7200 nM | 50 µg/mL (≈ 140 µM) | 26 mg/kg per day | > 100000 nM | IC50 (pfDHODH): 31 nM
Cc1cc(Nc2ccc(C(F)(F)F)nc2)n2nc(C(C)(F)F)nc2n1 [Compound (1), 2-(1,1-difluoroethyl)-5-methyl-N-(6-(trifluoromethyl)pyridin-3-yl)-[1,2,4]triazolo[1,5-a]pyrimidin-7-amine] | 11 nM | 30 nM | > 100000 nM | 54000 nM | 24000 nM | > 100 µg/mL | 2.6 mg/kg per day | 65000 nM | IC50 [1, 8]: 292 nM; IC50 [5, 9]: 151 nM; IC50 [2, 9]: 175 nM; comparative activity between P. falciparum and P. vivax ([2]; ex vivo parasite assay): equivalent activity on both P. falciparum and P. vivax
Cc1cc(Nc2ccc(C(F)(F)F)cn2)n2nc(C(F)(F)F)nc2n1 [Reference 2] | 70 nM | 37 nM | > 50000 nM | – | – | 1.6 µg/mL (≈ 4.42 µM) | – | – | –
CCc1nc(N)nc(N)c1-c1ccc(Cl)cc1 [Pyrimethamine] | – | – | – | – | – | – | 0.9 mg/kg per day | – | –
Cc1cc(Nc2ccc(S(F)(F)(F)(F)F)cc2)n2nc(C(C)(F)F)nc2n1 [Reference 4] | 5 nM | – | – | – | – | 25 µg/mL (≈ 60.2 µM) | 8.1 mg/kg per day | – | IC50 [1, 8]: 177 nM; IC50 [5, 9]: 190 nM; IC50 [2, 9]: 920 nM
Cc1nc2nc(C(C)(F)F)nn2c(Nc2ccc(C(F)(F)F)nc2)c1F [Compound (2), 2-(1,1-difluoroethyl)-6-fluoro-5-methyl-N-(6-(trifluoromethyl)pyridin-3-yl)-[1,2,4]triazolo[1,5-a]pyrimidin-7-amine] | 16 nM | 23 nM | 62000 nM | 20000 nM | 15700 nM | > 100 µg/mL | – | 9200 nM | –
